What was measured:
[1] = test system: TNF-α; assay: LPS-mediated cytokine production model, serum TNF-α; type: in vivo, CD1:ICR mice; details: for TNFα inhibition in dose-response study: IP, up to a dose of 5 mg/kg, pre-dose 1 hr; for TNFα inhibition, IV versus IP administration: pre-dose time course, 10 mg/kg
Excerpt: Bolus injection of lethal or sub-lethal doses of lipopolysaccharide (LPS; the major component of bacterial cell walls) results in a rapid and transient rise in serum cytokine levels (e.g. TNF-α) in mammals. This animal model was originally developed to mirror certain aspects of septic shock in humans; however, there is poor correlation between efficacy in LPS-rodent models and clinical efficacy. However, this model may be an effective first-line general inflammation model and could be useful in determining the anti-inflammatory potential of test compounds. A variety of clinically approved anti-inflammatory compounds, including glucocorticoids, NSAIDS and COX-2 inhibitors are extremely effective in this model. Compounds ICI-685 and ICI-735 were tested for their ability to inhibit LPS-stimulated TNF-α and IL-1β production.
Both ICI-685 and ICI-735 were formulated in water. For the time course study, both drugs were formulated at a concentration of 1 mg/ml and dosed 10 ml/kg to produce a dose of 10 mg/kg. For the dose-response study, drug was formulated at concentrations of 0.05, 0.2 and 0.5 mg/ml and dosed at a volume of 10 ml/kg to produce doses of 0.5, 2 and 5 mg/kg, respectively. Animals were dosed IV or IP.
CD1:ICR mice were obtained from Harlan (Indianapolis, Ind.) at 6 weeks of age. Animals were housed 5 per cage, kept on a 12 hr light dark cycle and fed food and water ad libitum. Animals were tested at 8-10 weeks of age.
Lipopolysaccharide (heat killed E. coli 0127:B5; Sigma Aldrich) was prepared in distilled water at a concentration of 0.025 mg/ml. LPS was dosed at a volume of 10 ml/kg (IP) to produce a final dose of 0.25 mg/kg (approximately 7.5 μg/mouse). Drugs were dosed prior to LPS administration as indicated elsewhere herein. Blood was collected by retro-orbital eye bleed 90 minutes after LPS administration. Serum was prepared from blood and TNF-α and IL-1β levels were measured by using the OPT-EIA mouse TNF-α and IL-1β ELISA kits (BD Biosciences) as per directions of the manufacturer.
The first study was designed to determine the optimal route of administration and the optimal pre-treatment time. Two pre-dose time course studies were conducted. The first (Study 1A) was conducted with 3 pre-dose time points (2, 6 and 18 hrs). The second was conducted at 0, 1 and 2 hr predose time points. For both studies, drug was dosed IP or IV.
Using data from the first study, a second study was conducted that was designed to measure dose-response activity of each compound. Compounds were tested at doses of 0, 2.0 and 5 mg/kg using the route and pre-treatment time that produced the best activity. […]
Using data from the first study, a second study was conducted that was designed to measure dose-response activity of each compound. Compounds were tested at doses of 0.5, 2.0 and 5 mg/kg using the route and pre-treatment time that produced the best activity.

[2] = test system: Aspergillus fumigatus-based mouse asthma model; assay: Aspergillus fumigatus-based mouse asthma model, lung resistance; type: in vivo; details: intraperitoneally at a dose of 20 mg/ml
Procedure: Compounds of the invention were also tested for efficiacy in an asthma model.
A cohort of mice were administered intraperitoneal injections of Aspergillus fumigatus on days 0, 14, 26, 27, and 28. Lung resistance was tested on day 29 immediately following a tracheotomy/methacholine procedure. Animals receiving dexamethasone were administered dexamethasone on days 26, 27 and 28. Animals receiving a compound of the invention were administered the compound just hours before the lung resistance test. As a control, all test compounds, as well as dexamethasone, were also administered to mice in the absence of an A. fumigatus insult.

[3] = test system: mice sensitized with collagen injections; assay: Clinical arthritis score in mice sensitized with collagen injections; type: in vivo
Procedure: FIGS. 26-28 illustrate the effect of various compounds of the invention on the clinical arthritis score of mice treated with various compounds of the invention.
Additional testing of the effectiveness of compounds ICI-685, ICI-735 and ICI-847 at higher and lower concentrations were conducted, as illustrated in FIG. 29.

Row | Compound | TNFα inhibition in dose-response study [1] | TNFα inhibition, IV versus IP administration [1] | decreasing lung resistance, compared with dexamethasone [2] | clinical arthritis score, compared with dexamethasone ([3]; 30 mg/kg) | clinical arthritis score, compared with dexamethasone ([3]; orally at 10 mg/kg daily, for about 21 days)
1 | NCCN1CCN(CCCCN2c3ccccc3Sc3ccc(C(F)(F)F)cc32)CC1 [ICI-953] | ineffective | IP administration produced slightly better inhibition than IV administration | – | – | –
2 | NCC(=O)NCCN1CCN(CCCN2c3ccccc3Sc3ccc(C(F)(F)F)cc32)CC1 [ICI-735] | – | – | at least as effective as dexamethasone | – | –
3 | NCC(=O)NCCN1CCN(CCCCN2c3ccccc3Sc3ccc(C(F)(F)F)cc32)CC1 [ICI-954] | ineffective | IP administration produced slightly better inhibition than IV administration | – | – | –
4 | FC(F)(F)c1ccc2c(c1)N(CCCC1CCNCC1)c1ccccc1S2 [ICI-824] | ineffective | IP administration produced slightly better inhibition than IV administration | – | – | –
5 | CN(C)S(=O)(=O)c1ccc2c(c1)N(CCCN1CCN(CCN)CC1)c1ccccc1S2 [ICI-715] | – | IV administration of ICI-715 produced slightly better inhibition than IV administration | – | – | –
6 | NCCCN1CCC(CCCN2c3ccccc3Sc3ccc(C(F)(F)F)cc32)CC1 [ICI-847] | – | – | at least as effective as dexamethasone | as effective for the length of the study as is dexamethasone | as effective as dexamethasone

Reference: patent US7923445B2, “Methods for treatment of diseases related to activated lymphocytes” (Immune Control, Inc., priority 2006, dated 2011)
